Measured values: paper PMC6428052 (Journal of medicinal chemistry, 2018)
pKi: −log10 of the molar value.

Assays:
[1] = system: 45 receptors, transporters and ion channels; assay: PDSP comprehensive off-target screen; format: binding
5HT2B = 5HT2B (Homo sapiens, UniProt P41595); assay: PDSP off-target binding; conditions: read-out: Ki, 5HT2B
H3 = H3 (Homo sapiens, UniProt Q9Y5N1); assay: PDSP off-target binding; conditions: read-out: Ki, H3
hP2Y14R = biological target: T1, hP2Y14R (Homo sapiens, UniProt Q15391); format: binding; conditions: for fold less potent than 7 in P2Y14R binding: primary amino sulfonamides with two and four methylenes vs three
T1 sequence (Q15391 1-338): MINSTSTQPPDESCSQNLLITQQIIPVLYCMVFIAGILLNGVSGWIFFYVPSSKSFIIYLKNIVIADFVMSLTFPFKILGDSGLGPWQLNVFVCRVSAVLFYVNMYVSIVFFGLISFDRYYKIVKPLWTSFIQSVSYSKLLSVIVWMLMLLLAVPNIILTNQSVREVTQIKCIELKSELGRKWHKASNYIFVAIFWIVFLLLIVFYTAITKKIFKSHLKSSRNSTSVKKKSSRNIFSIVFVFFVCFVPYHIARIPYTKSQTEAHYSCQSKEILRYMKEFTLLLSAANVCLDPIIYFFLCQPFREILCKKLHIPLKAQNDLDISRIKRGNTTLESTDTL

Plasma stability = conditions: at 120 min; plasma of three species: human, rat and mouse
CACO-2 cell = CACO-2 cell permeability; conditions: CACO-2 cells
[2] = In vivo pharmacokinetics in rat; conditions: male Sprague Dawley rat, oral administration 1–10 mg/kg
[3] = Stability in simulated gastric and intestinal fluids; conditions: after 240 min
[4] = carboxylate replaced by tetrazole

Chain of 5HT2B (P41595 whole entry, species assumed): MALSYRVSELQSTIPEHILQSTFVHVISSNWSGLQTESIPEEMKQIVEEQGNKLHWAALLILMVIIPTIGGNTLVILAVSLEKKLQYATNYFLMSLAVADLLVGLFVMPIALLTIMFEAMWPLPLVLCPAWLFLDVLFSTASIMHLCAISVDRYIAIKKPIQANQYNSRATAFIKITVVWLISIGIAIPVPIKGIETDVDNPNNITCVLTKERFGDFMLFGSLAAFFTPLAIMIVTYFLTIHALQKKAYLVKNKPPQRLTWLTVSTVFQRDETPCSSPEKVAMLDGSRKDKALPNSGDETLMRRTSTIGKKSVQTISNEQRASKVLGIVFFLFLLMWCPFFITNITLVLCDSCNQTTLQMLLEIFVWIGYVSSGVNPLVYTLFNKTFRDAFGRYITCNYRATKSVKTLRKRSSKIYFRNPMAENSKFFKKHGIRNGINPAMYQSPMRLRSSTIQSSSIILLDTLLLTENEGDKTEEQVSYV
Chain of H3 (Q9Y5N1 whole entry): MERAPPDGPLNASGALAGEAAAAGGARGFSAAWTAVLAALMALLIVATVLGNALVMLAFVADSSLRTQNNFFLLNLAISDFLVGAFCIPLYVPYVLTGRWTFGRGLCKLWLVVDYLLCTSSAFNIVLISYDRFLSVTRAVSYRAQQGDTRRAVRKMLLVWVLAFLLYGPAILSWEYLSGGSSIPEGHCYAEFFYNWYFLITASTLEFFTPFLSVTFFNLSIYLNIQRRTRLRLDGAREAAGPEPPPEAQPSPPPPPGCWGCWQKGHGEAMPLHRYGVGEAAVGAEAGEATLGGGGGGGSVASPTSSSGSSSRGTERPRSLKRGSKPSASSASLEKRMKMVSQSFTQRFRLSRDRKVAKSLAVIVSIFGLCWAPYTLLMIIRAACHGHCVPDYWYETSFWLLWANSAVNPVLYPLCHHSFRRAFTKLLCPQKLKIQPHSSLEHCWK

O=C(O)c1cc(O)c2ccc(-c3ccc(C(F)(F)F)cc3)cc2c1 [37d]
Off-target interactions in the comprehensive PDSP screen [1]: bound only to NET

CC(C)(C)OC(=O)NCCCCCCn1cc(CCCCN2CCC(c3ccc(-c4cc(C(=O)O)cc5cc(-c6ccc(C(F)(F)F)cc6)ccc45)cc3)CC2)nn1 [compound 3c, 4-(4-(1-(4-(1-(6-((tert-Butoxycarbonyl)amino)hexyl)-1H-1,2,3-triazol-4-yl)butyl)piperidm-4-yl)phenyl)-7-(4-(trifluoromethyl)phenyl)-2-naphthoic acid]
pKi (5HT2B): 5.56 | pKi (H3): 5.56

NCCCCCCn1cc(CCCCN2CCC(c3ccc(-c4cc(C(=O)O)cc5cc(-c6ccc(C(F)(F)F)cc6)ccc45)cc3)CC2)nn1 [compound 3d, 4-(4-(1-(4-(1-(6-Ammohexyl)-1H-1,2,3-triazol-4-yl)butyl)piperidm-4-yl)phenyl)-7-(4-(trifluoromethyl)phenyl)-2-naphthoic acid]
Off-target interactions in the comprehensive PDSP screen [1]: displayed extensive off-target interactions with biogenic amine receptors

NCCNS(=O)(=O)c1ccc(-c2cc(C(=O)O)cc(-n3cc(-c4ccc(C(F)(F)F)cc4)nn3)c2)s1 [compound 5, 3-(5-(N-(2-Aminoethyl)sulfamoyl)thiophen-2-yl)-5-(4-(4-(trifluoromethyl)phenyl)-1H-1,2,3-triazol-1-yl)benzoic acid]
fold less potent than 7 in P2Y14R binding (hP2Y14R): 3 fold

NCCCNS(=O)(=O)c1ccc(-c2cc(C(=O)O)cc(-n3cc(-c4ccc(C(F)(F)F)cc4)nn3)c2)s1 [compound 7, 3-(5-(N-(3-Ammopropyl)sulfamoyl)thiophen-2-yl)-5-(4-(4-(trifluoromethyl)phenyl)-1H-1,2,3-triazol-1-yl)benzoic acid]
fold more potent than its Boc derivative 6 (hP2Y14R): 12 fold

NCCCCNS(=O)(=O)c1ccc(-c2cc(C(=O)O)cc(-n3cc(-c4ccc(C(F)(F)F)cc4)nn3)c2)s1 [compound 9, 3-(5-(N-(4-Ammobutyl)sulfamoyl)thiophen-2-yl)-5-(4-(4-(trifluoromethyl)phenyl)-1H-1,2,3-triazol-1-yl)benzoic acid]
fold less potent than 7 in P2Y14R binding (hP2Y14R): 3 fold

O=C(O)c1cc(-c2ccc(S(=O)(=O)NCCCCO)s2)cc(-n2cc(-c3ccc(C(F)(F)F)cc3)nn2)c1 [compound 10, 3-(5-(N-(4-Hydroxybutyl)sulfamoyl)thiophen-2-yl)-5-(4-(4-(trifluoromethyl)phenyl)-1H-1,2,3-triazol-1-yl)benzoic acid]
fold less potent than primary aminobutyl congener 9 (hP2Y14R): 4 fold

CCN(CC)CC.NS(=O)(=O)c1ccc(-c2cc(C(=O)O)cc(-n3cc(-c4ccc(C(F)(F)F)cc4)nn3)c2)cc1 [compound 16, 4'-Sulfamoyl-5-(4-(4-(trifluoromethyl)phenyl)-1H-1,2,3-triazol-1-yl)-[1,1'-biphenyl]-3-carboxylic acid]
fold more potent than thienyl sulfonamide 13 (hP2Y14R): 10 fold

CC(C)(C)OC(=O)N1CCN(Cc2ccc(-c3cc(C(=O)O)cc(-n4cc(-c5ccc(C(F)(F)F)cc5)nn4)c3)s2)CC1 [compound 17, 3-(5-((4-(tert-Butoxycarbonyl)piperazin-1-yl)methyl)thiophen-2-yl)-5-(4-(4-(trifluoromethyl)phenyl)-1H-1,2,3-triazol-1-yl)benzoic acid]
fold weaker than methylpiperazine 18 (hP2Y14R; Boc derivative vs free amine): 34 fold

NCCCNC(=O)c1ccc(-c2cc(C(=O)O)cc(-n3cc(-c4ccc(C(F)(F)F)cc4)nn3)c2)s1 [compound 20, 3-(5-((3-Aminopropyl)carbamoyl)thiophen-2-yl)-5-(4-(4-(trifluoromethyl)phenyl)-1H-1,2,3-triazol-1-yl)benzoic acid]
Off-target interactions in the comprehensive PDSP screen [1]: did not display extensive off-target interactions with biogenic amine receptors

O=C(O)c1cc(-c2ccc(C(=O)N3CCNCC3)s2)cc(-n2cc(-c3ccc(C(F)(F)F)cc3)nn2)c1 [compound 22, 3-(5-(Piperazine-1-carbonyl)thiophen-2-yl)-5-(4-(4-(trifluoromethyl)phenyl)-1H-1,2,3-triazol-1-yl)benzoic acid]
fold less potent than thienyl sulfonamide 12 (hP2Y14R; cyclic amines): 2 fold

CCN(CC)CC.NC(=O)c1ccc(-c2cc(C(=O)O)cc(-n3cc(-c4ccc(C(F)(F)F)cc4)nn3)c2)o1 [compound 24, 3-(5-Carbamoylfuran-2-yl)-5-(4-(4-(trifluoromethyl)phenyl)-1H-1,2,3-triazol-1-yl)benzoic acid]
fold less potent than carboxamide 30 (hP2Y14R): 10 fold

CCN(CC)CC.NC(=O)c1ccc(-c2cc(C(=O)O)cc(-n3cc(-c4ccc(C(F)(F)F)cc4)nn3)c2)cc1 [compound 30, 4'-Carbamoyl-5-(4-(4-(trifluoromethyl)phenyl)-lH-l,2,3-triazol-l-yl)-[l,l'-biphenyl]-3-carboxylic acid]
Off-target interactions in the comprehensive PDSP screen [1]: did not bind appreciably to any other sites | remaining in plasma (Plasma stability): 94 – 100 % remaining | Papp, apical to basal (CACO-2 cell): 0.0 X 10^−6 cm/sec | oral bioavailability [2]: lack of bioavailability | remaining in simulated gastric fluid [3]: 100 % remaining | remaining in simulated intestinal fluid [3]: 100 % remaining

FC(F)(F)c1ccc(-c2cn(-c3cc(-c4ccc(C5CCNCC5)cc4)cc(-c4nnn[nH]4)c3)nn2)cc1 [compound 35, 4-(3'-(1H-Tetrazol-5-yl)-5'-(4-(4-(trifluoromethyl)phenyl)-1H-1,2,3-triazol-1-yl)-[1,1'-biphenyl]-4-yl)piperidine]
fold reduction of affinity relative to 2a (hP2Y14R; [4]): 30 fold

NCCCNC(=O)c1ccc(-c2cc(-c3nnn[nH]3)cc(-n3cc(-c4ccc(C(F)(F)F)cc4)nn3)c2)s1 [compound 36a, 5-(3-(1#-Tetrazol-5-yl)-5-(4-(4-(trifluoromethyl)phenyl)-1H-1,2,3-triazol-1-yl)phenyl)-N-(3-aminopropyl)thiophene-2-carboxamide]
fold reduction of affinity relative to 20 (hP2Y14R): 7 fold

NC(=O)c1ccc(-c2cc(-c3nnn[nH]3)cc(-n3cc(-c4ccc(C(F)(F)F)cc4)nn3)c2)cc1 [compound 36b, 3'-(1H-Tetrazol-5-yl)-5'-(4-(4-(trifluoromethyl)phenyl)-1H-1,2,3-triazol-1-yl)-[1,1'-biphenyl]-4-carboxamide]
fold less potent than carboxamide 30 (hP2Y14R): 9 fold

CC(C)(C)NC(=O)c1ccc(-c2cc(-c3nnn[nH]3)cc(-n3cc(-c4ccc(C(F)(F)F)cc4)nn3)c2)cc1 [compound 36c, N-(terf-Butyl)-3'-(1H-tetrazol-5-yl)-5'-(4-(4-(trifluoromethyl)phenyl)-1H-1,2,3-triazol-1-yl)-[1,1'-biphenyl]-4-carboxamide]
fold reduction of affinity relative to 34 (hP2Y14R; [4]): 3 fold

O=C(O)c1cc(O)cc(-n2cc(-c3ccc(C(F)(F)F)cc3)nn2)c1 [compound 37a]
fold less potent than carboxamide 30 (hP2Y14R): 60 fold
